Tests used:
PDK1 = target: T1, PDK1 (Homo sapiens, UniProt O15530); assay: PDK1 activity assay with T308tide and [γ32P]ATP; assay type: biochemical; parameters: made in house; host or cells: HEK293 (GST fusion) or Sf9 insect cells (His form); conditions: full-length PDK1
T1 sequence (O15530 1-556): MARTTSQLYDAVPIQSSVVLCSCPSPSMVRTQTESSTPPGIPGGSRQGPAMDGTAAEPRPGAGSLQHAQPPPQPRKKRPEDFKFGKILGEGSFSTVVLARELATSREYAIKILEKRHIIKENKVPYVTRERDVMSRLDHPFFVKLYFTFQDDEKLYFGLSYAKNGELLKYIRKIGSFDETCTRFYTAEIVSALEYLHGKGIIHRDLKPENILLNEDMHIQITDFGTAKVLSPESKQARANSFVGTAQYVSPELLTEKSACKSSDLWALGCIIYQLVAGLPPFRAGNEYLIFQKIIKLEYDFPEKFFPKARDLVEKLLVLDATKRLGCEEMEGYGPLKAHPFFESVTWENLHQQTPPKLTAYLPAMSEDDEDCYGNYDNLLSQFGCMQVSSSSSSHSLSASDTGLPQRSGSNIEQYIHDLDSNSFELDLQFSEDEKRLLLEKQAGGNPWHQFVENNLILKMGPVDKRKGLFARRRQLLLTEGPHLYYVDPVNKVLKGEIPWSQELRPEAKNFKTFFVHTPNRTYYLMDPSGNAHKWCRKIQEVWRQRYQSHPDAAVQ
Method: The PDK1 activity assay using T308tide as a substrate was performed essentially as previously described ([18], [28], [54]). In brief, the assay was performed in a 20 μl format containing 50 mM Tris pH 7.5, 0.05 mg/ml BSA, 0.1% ß-mercaptoethanol, 10 mM MgCl2, 100 μM [γ^32P]ATP (5-50 cpm/pmol), 0.003% Brij, 150-500 ng PDK1, and T308tide (0.3 mM) at room temperature. The assay was performed in 96 well plated and stopped by the addition of 5 μl of 0.1 % phosphoric acid. 4 μl aliquots were spotted on p81 phosphocellulose papers (Whatmann) using ep motion 5070 (Eppendorf). The phosphocellulose papers were washed in 0.01% phosphoric acid, dried, and exposed using PhosphoImager (FLA-9000 Starion). Data were analyzed with ImageQuant software (Fujifilm). Activity measurements were performed in technical duplicates or triplicates with less than 10% difference between replicates. Experiments were repeated at least twice. The activity measurements of PDK1 towards GS-022 and GS-023 were performed similarly, with the GS-peptides replacing T308tide at the indicated concentrations. GS-022 and GS-023 have features consistent with the loose characteristics disclosed for the peptide Ser/Thr 07, ((R/K)1-3(X)0-2 (S/T) (X)0-2(R/K)1-3, where X is any residue) used by the commercial “PDK1 Direct” assay.

GST-PDK1_360-556 = target: T2, GST-PDK1_360-556 (Homo sapiens, UniProt O15530); assay: AlphaScreen biotin-PIP3 / GST-PDK1_360-556 (linker-PH domain) displacement; assay type: binding; conditions: relative to 5 nM on GST-PDK1_1-556
T2 construct: GST-PDK1_360-556 (GST-PDK1-Linker-PH) was cloned into the BamHI-KpnI sites in pEBG2T plasmid; made in house; host or cells: HEK293 cells (transient transfection of pEBG2T)
T2 sequence (O15530 360-556): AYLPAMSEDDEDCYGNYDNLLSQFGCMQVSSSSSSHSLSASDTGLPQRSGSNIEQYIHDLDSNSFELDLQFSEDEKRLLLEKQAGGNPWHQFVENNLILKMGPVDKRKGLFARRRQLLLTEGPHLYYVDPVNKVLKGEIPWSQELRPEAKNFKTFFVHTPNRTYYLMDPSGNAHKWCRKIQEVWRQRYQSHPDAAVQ
Method: The AlphaScreen® assay was performed following the general guidelines from the manufacturer (Perkin Elmer) ([29]). In short, the assay was performed in a final volume of 25 μl in white 384-well microtiter plates (Greiner) in a standard buffer containing 50 mM Tris-HCl (pH 7.4), 100 mM NaCl, 2 mM DTT, 0.01% (v/v) Tween-20 and 0.1% (w/v) BSA, with the addition of 5 μl of beads (anti-GST coated acceptor beads and streptavidin-coated donor beads; nickel chelate-coated acceptor beads and streptavidin-coated donor beads; or nickel chelate-coated acceptor beads and GSH-coated donor beads, 20 μg/ml final concentrations for each bead type). […]
The conditions for each AlphaScreen assay were identified in cross-titration experiments for each interaction to choose the ideal pair of concentrations within the linear range of the interactions. […] His-PDK1 and GST-fusion protein in the presence or absence of the different compounds were incubated in the dark for 60 min at room temperature and the emission of light from the acceptor beads was measured in an EnVision reader (Perkin Elmer) or Spark plate reader (Tecan). […]
Biotin-PIP3 interactions with GST-PDK1_1-556 or GST-PDK1_360-556 were assessed in the standard buffer. […]

Row | effect on activity of full-length PDK1 toward T308tide (PDK1) | fold higher concentration needed for similar displacement of PIP3 from GST-linker-PH domain than from GST-PDK1_1-556 (GST-PDK1_360-556) | Compound
1 | partially inhibited |  | O=C(O[C@H]1[C@@H](OP(=O)(O)O)[C@H](OP(=O)(O)O)[C@@H](OP(=O)(O)O)[C@H](OP(=O)(O)O)[C@H]1OP(=O)(O)O)c1ccccc1 [HYG8, 2-O-benzoyl-IP5]
2 |  | more than 1000 fold | CCCCO[C@H]1[C@@H](OP(=O)(O)O)[C@H](OP(=O)(O)O)[C@@H](OP(=O)(O)O)[C@H](OP(=O)(O)O)[C@H]1OP(=O)(O)O [HYG14, 2-O-butyl-IP5]
